{"source": "paper PMC8873251", "about": "“An amiloride derivative is active against the F1Fo-ATP synthase and cytochrome bd oxidase of Mycobacterium tuberculosis” (Communications Biology, 2022)", "key": {"[1]": {"molecular_target": "T1, F1Fo-ATP synthase c-subunit (c-ring) (Mycolicibacterium phlei, UniProt A0A5N5V239)", "T1 construct": "gene atpE", "T1 sequence (A0A5N5V239 1-86)": "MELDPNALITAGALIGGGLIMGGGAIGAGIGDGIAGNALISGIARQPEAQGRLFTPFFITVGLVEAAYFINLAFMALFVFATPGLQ", "test": "MALDI-MS time course of covalent c-subunit labelling", "assay_type": "binding"}, "cytochrome bd oxidase": {"molecular_target": "T2, cytochrome bd oxidase (Mycobacterium tuberculosis, UniProt L7N662+O06139)", "T2 construct": "gene cydA", "T2 sequence (O06139 entry or part of it)": "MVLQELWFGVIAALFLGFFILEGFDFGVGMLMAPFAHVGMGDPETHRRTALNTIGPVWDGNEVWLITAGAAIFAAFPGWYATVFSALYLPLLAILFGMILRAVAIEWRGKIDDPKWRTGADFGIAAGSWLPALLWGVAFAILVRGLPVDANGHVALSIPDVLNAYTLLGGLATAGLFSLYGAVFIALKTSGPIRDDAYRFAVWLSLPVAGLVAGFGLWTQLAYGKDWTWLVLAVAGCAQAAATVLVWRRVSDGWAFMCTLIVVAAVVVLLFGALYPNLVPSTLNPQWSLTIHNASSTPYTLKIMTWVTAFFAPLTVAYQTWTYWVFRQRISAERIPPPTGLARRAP", "T2 sequence (L7N662 entry or part of it)": "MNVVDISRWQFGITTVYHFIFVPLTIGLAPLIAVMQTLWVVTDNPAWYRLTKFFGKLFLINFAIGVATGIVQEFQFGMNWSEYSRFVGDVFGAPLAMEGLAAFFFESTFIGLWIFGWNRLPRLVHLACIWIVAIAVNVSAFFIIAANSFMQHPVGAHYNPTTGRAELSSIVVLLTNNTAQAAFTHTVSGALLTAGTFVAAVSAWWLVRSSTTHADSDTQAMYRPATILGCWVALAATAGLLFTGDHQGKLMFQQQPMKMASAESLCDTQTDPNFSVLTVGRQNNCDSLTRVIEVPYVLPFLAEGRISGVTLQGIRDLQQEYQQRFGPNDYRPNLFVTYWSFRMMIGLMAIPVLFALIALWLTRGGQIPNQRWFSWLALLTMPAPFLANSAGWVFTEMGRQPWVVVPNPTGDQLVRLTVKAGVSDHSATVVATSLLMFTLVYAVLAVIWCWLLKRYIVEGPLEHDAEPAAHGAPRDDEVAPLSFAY", "test": "malate-driven oxygen consumption in IMVs pre-inhibited with TB47, titration; empty-vector control", "assay_type": "biochemical"}, "[2]": {"molecular_target": "T1, F1Fo-ATP synthase c-subunit (c-ring)", "test": "MALDI-MS competition with DCCD labelling of purified c-ring", "assay_type": "binding"}}, "data": [{"molecule": "C(=NC1CCCCC1)=NC1CCCCC1", "note": "[DCCD, N,N'-dicyclohexylcarbodiimide]", "values": [{"measurement": "MALDI-MS time course of covalent c-subunit labelling", "setting": "[1]", "result": "Time course of DCCD labelling in purified M. phlei c-rings in the presence of the indicated amounts of HMA"}]}, {"molecule": "N=C(N)NC(=O)c1nc(-c2cc3ccccc3o2)c(N)nc1N", "note": "[HM2-16F]", "values": [{"measurement": "IC50", "setting": "cytochrome bd oxidase", "result": 21.2, "unit": "µM"}]}, {"molecule": "N=C(N)NC(=O)c1nc(Cl)c(N2CCCCCC2)nc1N", "note": "[HMA, 5-(N,N-hexamethylene)amiloride]", "values": [{"measurement": "MALDI-MS competition with DCCD labelling of purified c-ring", "setting": "[2]", "result": "HMA was able to outcompete the canonical c-ring covalent inhibitor DCCD for inhibition of the M. phlei F1Fo-ATP synthase c-subunit"}]}]}
